These are literature values, as cited in PMC10994420, “Development of peptides for targeting cell ablation agents concurrently to the Sertoli and Leydig cell populations of the testes: An approach to non-surgical sterilization” (PLOS ONE, 2024).

Numbered stars: 1 amine (or outer) side, 2 acyl side, 3 side chain; on linkers, the order of the positions; unused ones are H or OH. Square brackets hold non-standard residues; d marks the D form. Peptide text beside a SMILES is read from it. * marks the point of attachment. Dolaproine = CO[C@@H]([C@@H]1CCCN1)[C@@H](C)C(=O)O; Hexanoyl(6-maleimido) = O=C1C=CC(=O)N1CCCCCC(=O)*; Dil = CC[C@H](C)[C@H](NC)[C@@H](CC(=O)O)OC; PABC = O=C(OCc1ccc(N[*:1])cc1)[*:2]; X1 = C[C@@H](N*)[C@@H](O)c1ccccc1; Cit = NC(=O)NCCC[C@H](N)C(=O)O; NMeV = CN[C@H](C(=O)O)C(C)C

For series [1] the following is noted: maleimide form with valine-citrulline linker; ref https://www.chemsrc.com/en/cas/646502-53-6_1197872.html. An excerpt: Among these criteria, aqueous solubility was considered an important factor, both in the context of reaction with Auristatin and for use of biocompatible solvents for in vivo delivery.
For series [2] the following is noted: no reference given. Here is the method: Four treatment groups of ten 55-day-old male Swiss male CD1 mice were injected intraperitoneally. Treatments included: (1) […] vehicle control (30% Solutol (Kolliphor)/PBS), (2) 300 μL/30 g 14.5 mM FSH2Menadione, (3) 100 μL/30g 425 μM LH2Aur, or (4) 300 μL/30 g 14.5 mM FSH2Menadione plus 100 μL/30g 425 μM LH2Aur (consecutive injections, 16 h apart). The dose of 1 mg/kg of conjugated Auristatin was determined with reference to the work by Doronina et al., who determined the maximum tolerated dose (MTD) of conjugated Auristatin for mice is 1.1 mg/kg. Solubility of the FSH2Menadione was ...

For `CC[C@H](C)[C@@H]([C@@H](CC(=O)N1CCC[C@H]1[C@H](OC)[C@@H](C)C(=O)N[C@H](C)[C@@H](O)c1ccccc1)OC)N(C)C(=O)[C@@H](NC(=O)[C@H](C(C)C)N(C)C(=O)OCc1ccc(NC(=O)[C@H](CCCNC(N)=O)NC(=O)[C@@H](NC(=O)CCCCCN2C(=O)C=CC2=O)C(C)C)cc1)C(C)C` [Auristatin, maleimide-valine-citrulline- para-aminobenzyloxycarbonyl -monomethyl-Auristatin E] ({Hexanoyl(6-maleimido)}-V[Cit][PABC][NMeV]V[Dil][Dolaproine]-X1), in series [1], the aqueous solubility entry is on record as “very poor” and the logP value was 6.04.

Take `CC1=CC(=O)c2ccccc2C1=O` [menadione, 2-methyl-1,4-naphthoquinone]: the MTD in series [2] is given as 830 mg/kg.
